Columns and labels:
Assay type in all cases: cell-based
[1] = test system: cellular proteins of HEK-293 and MCF7 cell lines; experiment: 3Px probe protein labelling, UV irradiation, anti-puromycin immunoblot
Method: For our initial analysis, we treated HEK-293 and MCF7 cell lines in complete culture medium with the 3PB probe (10 μM) for 10 min, followed by irradiation for 5 min on ice (total power: 0.75 J/cm2). We first assessed 3PB labeling of cellular proteins using SDS-PAGE analysis. […] Then, we compared the labelling activity of 3PB, 3PA and 3PBis in HEK293 and MCF7 cells, adding the probes before or after cell lysis. In the latter case, each probe is incubated for 1 h in the cytoplasmic cell extract at 4° C., followed by UV irradiation (0.75 J/cm^2) of the treated lysate. […] Therefore, both 3PB and 3PBis show additional bands with MW=˜50 kDa, when reacted in the cell lysate, with respect to the situation when probes are incubated with growing cells (FIG. 6a). […] This is presumably due to the higher hydrophobicity of the 3PBis probe and a consequent better cell membrane penetration (FIG. 7).
To test 3PN and 3PO activity, we treated MCF7 cells with different concentrations of the two drugs for 10 min, followed by UV-356 irradiation.
Reaction in cell culture: MCF7 or HEK-293 cells were grown to 80% of confluence and treated with CHX (10 μg/mL, 5 min, 37° C.) and then with the probe (10 min, 37 C). Cells were then washed with cold PBS (containing CHX 10 μg/mL), placed on ice and irradiated under a UV lamp (BLX-365, 5×8 W) at 365 nm for 5 min (0.75 J/cm^2) followed by lysis with hypotonic cytoplasmic buffer. Reaction in the cell lysate: HEK-293 or MCF7 cells were treated with CHX (10 μg/mL, 5 min). After hypotonic lysis and precipitation of nuclei and cellular debris by centrifugations at 18000 g, 4° C., 5 min, the supernatant was diluted to A260=1 a.u/μL with 10 mM NaCl, 10 mM MgCl2, 20 μg/mL cycloheximide, 10 mM Hepes, pH 7 in DEPC water, to a final volume of 150 μL. The diluted lysate was then incubated with the reactive probe for 1 hour in a 12-well plate and then UV-irradiated (BLX-365) at 365 nm for 5 min (0.75 J/cm2).
Cell lysates were prepared as described above. Proteins were separated by SDS-polyacrylamide gel electrophoresis and transferred onto PVDF membranes. […]

[2] = test system: MCF7 cells; experiment: Puromycin concentration effect on translation, puromycin immunoblot; details: MCF7, 2 hours
Method: FIG. 10. Effect of ribosome inhibitors on 3PB/3PBis binding. (a) Immunoblot of puromycin on total protein extracts from, MCF7 cell treated with increasing concentrations of puromycin (incubation time: 2 hours). CHX+Puro: 350 μM CHX before puromycin treatment (20, 50, 100, 200 μM). 3PBis treatment: (50 μM, 10 min); −, not treatment. (b) On the left, immunoblot with anti-puromycin antibody on total protein extracts from MCF7 cells treat with the indicated drugs. CHX, 350 μM, 5 min; Puromycin, 100 μM, 2 hours; 3PB, 50 μM, 10 min. On the right, CuAAC coupling with Biotin-azide was performed on the cell lysate before total protein extract and SDS-PAGE. The staining of the membrane was performed with Streptavidin-HRP. (c) Sketch that summarize the effect of puromycin treatment on the 3PB-3PBis labelling.
Next, we asked if the labelling is sensitive on puromycin treatment (i.e. dependent on ribosome activity). To do that, we first treated MCF7 cell with puromycin followed by 10 min incubation with 3PB or 3PBis. When used in minimal amounts, puromycin can be incorporated in neosynthesized proteins^25, while high concentrations as well as long incubation times, fully block translation. […] Probe-labeled proteins were coupled to a Cy3-azide reporter tag using CuAAC chemistry, separated by SDS-PAGE and detected by in-gel fluorescence scanning. […]

[3] = test system: MCF7 cells; experiment: Polysome profiling of probe-treated cells; details: MCF7, 50 μM, 10 min
Method: To better understand the effect of 3Px on the global translation efficiency, we compared the polysome profiles from DMSO and probes-treated cells. By treating MCF7 cells with 50 μM 3PBis or 3PB for 10 min, we observed a 10% reduction of the polysome/80S ratio (calculated by comparing the area under the 80S peak and the combined area under the polysome peaks, FIG. 11a). This effect is independent from the UV-treatment. Incubation of 3PB and 3PBis for longer times (7 hours or 18 hours) results in a depression of the polysome/80S area ratio of >50%, meaning that treatments with 3PBis can depress translation, increasing the 80S pick and reducing heavy polyribosomes (FIG. 11b).
Cells were incubated for 5 minutes with cycloheximide 10 μg/mL at 37° C. to trap the ribosomes on the mRNAs. Cells were then washed with PBS complemented with cycloheximide (10 μg/mL) and scraped directly on the plate with 300 μL of lysis buffer (10 mM NaCl, 10 mM MgCl2, 10 mM Tris-HCl, pH 7.5, 1% Triton X-100, 1% sodium deoxycholate, […], 5 U/mL DNAse I, 200 U/mL RNase inhibitor, and 10 μg/mL cycloheximide, protease inhibitor). Nuclei and cellular debris were removed by three consecutive centrifugations (800 g, 5 min at 4° C.). […] The fraction corresponding to the 40S, 60S and 80S peaks and those corresponding to polysomes were collected monitoring the absorbance at 254 nm. […]

[4] = test system: ATP-binding site of GRP78; experiment: Competition with VER-155008 on probe labelling; details: MCF7, VER-155008 100 μM 1 hour before probe
Method: In total, 114 protein targets were identified from in-column digestion (called data set 1, n=4), 204 targets from in-gel digestion (called data set 2, n=4) and 1085 from in-bead digestion (called data set 3, n=2, FIG. 12c). The 3PB-beads pull down reflects the “double band” pattern observed with the incubation of 3PB/3PBis in the cell lysate (FIG. 12b). To increase the stringency of our in-beads digestion data set, we performed an enrichment analysis over control Peg-beads (n=2) and we identified 333 proteins setting a cut-off fold-enrichment (FC)≥1.3 between 3PB- and Peg-beads, while 166 proteins are identified with a FC≥2.5. By using the less stringent filter (FC≥1.3) and looking for proteins in common in the three data set, we identified 15 proteins as putative 3PB targets. These factors are known to be involved in tRNAs selection and ribosome elongation (eEF1A, eEF2, eEF4G), ribosome structure (RPL18), protein folding (HSP5A, HSP90AB1, PPIA), metabolism (PHGFH, ENO1, GAPDH, ALB), RNA processing (HNRNPK) and cellular structure (KRT2, KRT10, ACTB). […] After pull-down assay using avidin-magnetic beads (FIG. 12e and FIG. 13a) we observed the presence of the lower HSPA5/GRP78 band, while the upper band (although dominant in the input) was not detected. […]

[5] = test system: 28S ribosomal RNA; experiment: Labelling of rRNA by 3PBis, Cy3 in-gel fluorescence; details: MCF7, Cy3 conjugation, total RNA agarose gel
Method: FIG. 20. 3PBis-ribosome interaction and labelling of 28S rRNA. MCF7 cells were incubated with 3PBis, fixed and conjugated with Cy3. After extraction, total RNA was run in agarose gel and stained with Syber gold or visualized by in-gel fluorescence scanning.
We investigated the possibility that 3Px molecules directly reacts in the ribosome itself. If 3Px enters the ribosome as puromycin does, it should bind only the large ribosomal subunit, and in particular the rRNA 28S that form the catalytic pocket of the ribosome.

[6] = test system: MCF7 cells; experiment: Probe labelling after puromycin/CHX treatment, CuAAC Cy3-azide, in-gel fluorescence; details: MCF7, puromycin 20 and 100 μM 2 hours; 3PB 100 μM or 3PBis 50 μM, 10 min
Method: Next, we asked if the labelling is sensitive on puromycin treatment (i.e. dependent on ribosome activity). To do that, we first treated MCF7 cell with puromycin followed by 10 min incubation with 3PB or 3PBis. When used in minimal amounts, puromycin can be incorporated in neosynthesized proteins^25, while high concentrations as well as long incubation times, fully block translation. We first define the concentration that allows puromycin to be incorporated in the nascent peptide chain (i.e. 20 μM), and the range of concentrations that completely depress translation in our biological model (i.e. 50 μM, 100 μM and 200 μM, FIG. 10a). We treat MCF7 cells with both 20 and 100 μM puromycin for 2 hours before adding 3PB (100 μM, 10 min) or 3PBis (50 μM, 10 min). Probe-labeled proteins were coupled to a Cy3-azide reporter tag using CuAAC chemistry, separated by SDS-PAGE and detected by in-gel fluorescence scanning. We observed about 50% reduction of the labelling at 65 kDa after puromycin treatment for both probes (FIG. 5c-d). […] To better understand if the labelling is related to the activity of the ribosomal peptidyl transferase centre (PTC), we pre-treated cells with high concentrations of CHX (350 μM) before adding puromycin (100 μM) to fully block the ribosome catalytic activity^8. […]

## C#CCOc1cc(C2(C(F)(F)F)N=N2)ccc1C(=O)N[C@@H](Cc1ccc(OC)cc1)C(=O)N[C@H]1[C@@H](O)[C@H](n2cnc3c(N(C)C)ncnc32)O[C@@H]1CO [3PN]
[1]; MCF7, FIG. 8a
  labelling efficiency after anisomycin and arsenite pre-treatment: strong reduction

## COc1ccc(C[C@H](N)C(=O)N[C@H]2[C@@H](O)[C@H](n3cnc4c(N(C)C)ncnc43)O[C@@H]2CO)cc1 [puromycin, Puromycin]
[2]
  concentration that allows puromycin to be incorporated in the nascent peptide chain: 20 µM

## C#CCOCCC(=O)NCCOCCOCCNC(=O)N[C@@H](Cc1ccc(OC)cc1)C(=O)N[C@H]1C(OC(=O)OCCC2(C)N=N2)C(n2cnc3c(N(C)C)ncnc32)O[C@@H]1COC(=O)OCCC1(C)N=N1 (some centres unmarked) [3PBis]
[1]; HEK293 and MCF7, probes added before or after cell lysis, UV 0.75 J/cm2
  protein labeling signal: concentration-dependent increases in protein labeling
[1]; depending on position of UV-active diazirine on ribose
  functional (binding) activity: possess the functional activity
[3]
  reduction of the polysome/80S ratio: 10%
[4]
  reduction of probe labelling by VER-155008: 1.2 ×
[5]
  interaction with 28S rRNA: directly interact with the 28S ribosomal RNA
[6]
  reduction of the labelling at 65 kDa after puromycin treatment: about 50%
